Patent US10561666B2, “Amido compounds as RORγt modulators and uses thereof” (New York University, priority 2010, dated 2020)

Target: RORγt (Mus musculus, UniProt P51450, T352K)
Assay: RORγt S2 cell Gal4-luciferase reporter assay
Details: for Emax: read-out: Efficacy (%)
[1] = IC50(μM), Drosophila S2 cells, Gal4-RORγt luciferase reporter, 20 hr
[2] = S2 cell RORg IC50 μM, S2 cell reporter assay, listed for comparison

Chain of RORγt (P51450 with tags, fused parts or gaps T352K): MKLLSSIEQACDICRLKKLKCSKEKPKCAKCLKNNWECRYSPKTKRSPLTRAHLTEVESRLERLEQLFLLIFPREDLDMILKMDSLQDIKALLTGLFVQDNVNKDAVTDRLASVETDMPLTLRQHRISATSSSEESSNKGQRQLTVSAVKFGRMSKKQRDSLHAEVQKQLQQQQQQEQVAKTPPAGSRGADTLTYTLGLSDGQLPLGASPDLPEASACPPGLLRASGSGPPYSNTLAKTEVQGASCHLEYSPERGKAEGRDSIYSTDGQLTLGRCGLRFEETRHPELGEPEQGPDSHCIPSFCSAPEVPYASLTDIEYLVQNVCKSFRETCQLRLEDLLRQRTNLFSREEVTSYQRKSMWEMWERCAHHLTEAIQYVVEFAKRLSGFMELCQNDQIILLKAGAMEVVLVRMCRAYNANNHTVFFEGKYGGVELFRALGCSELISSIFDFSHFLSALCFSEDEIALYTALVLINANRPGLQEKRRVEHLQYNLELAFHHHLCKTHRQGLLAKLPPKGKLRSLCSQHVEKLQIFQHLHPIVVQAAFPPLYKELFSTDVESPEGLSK
From the text: Methods: The Drosophila S2 cell line was originally purchased from Invitrogen and was maintained in Schneider's medium supplemented with 10% heat-inactivated bovine fetal calf serum and antibiotics (Invitrogen). […] The resulting chimeric gene was subcloned into the copper inducible pMT/V5-His A vector (available from Invitrogen).
In order to generate stable cell lines, cells were co-transfected with pMT-G4DBD-RORγt, pMT-G4DBD-RORα, pMT-G4DBD-DHR3, or pMT-G4DBDVP16 and pHygro plasmids (Invitrogen) and screened for resistant colonies in the presence of hygromycin (0.3 mg/mL).
Methods: 600 G4DBD-RORγ/γt-luc reporter (#25) or G4DBD-VP16-luc reporter cells were distributed into each well of 1,536-well white bottom plates in 4 μl S2 cell culture volume containing hygromicin (300 μg/ml) and puromycin (2 μg/ml). […] After one-hour incubation, 1 μl of culture medium solution containing copper sulfate (to final 0.7 mM) and 10 μM RORγ/γt antagonists were added to each well. After 20-hour incubation at ambient temperature, 1.5 μl firefly luciferase detection mix was added and the luciferase activities were measured in 10 min. ViewLux luminometers were used for measuring luciferase signal.
Since their cognate DNA binding sites were not well characterized, the DNA binding domains (DBD) of RORγ/γt, RORα (mouse homolog for POPγ), and DHR3 (Drosophila orthologue for ROR family proteins) were replaced with the heterologous yeast GAL4 DBD. The transcriptionally active domain of general transcriptional activator VP16 was also fused with GAL4 DBD. The GAL4 fusion constructs were placed under the control of a copper inducible promoter, and stable S2 cell lines with genomic integration of these four reporter constructs were generated. The copper inducible promoter ensures tight regulation of GAL4-fusion protein expression and it allows small molecules to get into the cells prior to protein induction, thus increasing their effects on GAL4 reporters. The stable reporter cell lines also encode the firefly luciferase reporter, whose expression is regulated by five copies of the GAL4 binding site enhancer (UAS), along with the pol III-driven Renilla luciferase reporter.
A cell-based reporter assay was used to detect RORγt-mediated activity. This assay, called RORγt□ employed Drosophila Schneider cells that were stably transfected with two vectors: a gene expressing a fusion of the Gal4 DNA binding domain and RORγt transactivation domain under the control of the metallothionine promoter and a Photinus luciferase reporter regulated by the Gal4 binding site enhancer, UAS. […] Cells (600/well) were dispensed into white solid 1536-well plates (Greiner) using a solenoid-based dispenser. Following transfer of 23 nL compound or DMSO vehicle by a pin tool, the plates were incubated 1 hr at ambient temperature, and 1 uL/well copper sulfate (700 uM final concentration) was added. The plates were centrifuged 15 s at 1000 RPM and incubated 20 hr at ambient temperature. After addition of 1.5 uL Photinus luciferase detection reagent, the plates were incubated 10 min at ambient temperature and then read by a ViewLux (Perkin Elmer) to detect luminescence. […] Efficacy is expressed as % of the maximal response of control inhibitor (Digoxin), set at 100%.

Compound	IC50 [1] [µM]	Emax [%]	other results
1-(3,5-Dimethylpiperidin-1-yl)-3-(2-hydroxy-4,6-dimethoxyphenyl)-3-(3-(methylsulfonyl)phenyl)propan-1-one [Compound 83]	–	–	Efficacy (%) (% of the maximal response of control inhibitor (Digoxin), set at 100%): −93.79%; IC50 (Drosophila S2 cells, Gal4-RORγt luciferase reporter, 20 hr): 1 to 10 µM
COc1cc(O)c(C(CC(=O)N2CCCC(C)C2)c2ccc3c(c2)OCO3)c(OC)c1 (stereo not shown) [Compound 3]	1 to 10	98.8	–
COc1cc(O)c(C(CC(=O)N2CCOCC2)c2ccc3c(c2)OCO3)c(OC)c1 (stereo not shown) [Compound 4]	11 to 50	20.2	–
COc1cc(O)c(C(CC(=O)N2CCCCC2)c2ccc3c(c2)OCO3)c(OC)c1 (stereo not shown) [Compound 5]	11 to 50	90.4	–
COc1cc(O)c(C(CC(=O)N2CCCC(C#N)C2)c2ccc3c(c2)OCO3)c(OC)c1 (stereo not shown) [Compound 6]	11 to 50	66	–
CCC1CCCN(C(=O)CC(c2ccc3c(c2)OCO3)c2c(O)cc(OC)cc2OC)C1 (stereo not shown) [Compound 7]	1 to 10	96.2	–
CCCC1CCN(C(=O)CC(c2ccc3c(c2)OCO3)c2c(O)cc(OC)cc2OC)C1 (stereo not shown) [Compound 9]	11 to 50	63.5	–
CCC1(CC)CCN(C(=O)CC(c2ccc3c(c2)OCO3)c2c(O)cc(OC)cc2OC)C1 (stereo not shown) [Compound 10]	11 to 50	89	–
COc1cc(O)c(C(CC(=O)N2CCCC(C(C)C)C2)c2ccc3c(c2)OCO3)c(OC)c1 (stereo not shown) [Compound 11]	11 to 50	102	–
COCC1CCCN(C(=O)CC(c2ccc3c(c2)OCO3)c2c(O)cc(OC)cc2OC)C1 (stereo not shown) [Compound 12]	11 to 50	90.4	–
CCC(=O)C1CCCN(C(=O)CC(c2ccc3c(c2)OCO3)c2c(O)cc(OC)cc2OC)C1 (stereo not shown) [Compound 13]	> 50	–	–
COc1cc(O)c(C(CC(=O)N2CCCC(c3ccccc3)C2)c2ccc3c(c2)OCO3)c(OC)c1 (stereo not shown) [Compound 14]	11 to 50	70.1	–
COc1cc(O)c(C(CC(=O)N2CCCC(CN3CCCCC3)C2)c2ccc3c(c2)OCO3)c(OC)c1 (stereo not shown) [Compound 15]	> 50	–	–
COc1cc(O)c(C(CC(=O)N2CCCC(C(=O)c3ccccc3)C2)c2ccc3c(c2)OCO3)c(OC)c1 (stereo not shown) [Compound 16]	> 50	–	–
COc1cc(O)c(C(CC(=O)N2CCCC(C(=O)N3CCCCC3)C2)c2ccc3c(c2)OCO3)c(OC)c1 (stereo not shown) [Compound 17]	> 50	–	–
COc1cc(O)c(C(CC(=O)N2CCCC(c3nc4ccccc4o3)C2)c2ccc3c(c2)OCO3)c(OC)c1 (stereo not shown) [Compound 18]	11 to 50	90.6	–
COc1cc(O)c(C(CC(=O)N2CCCC(COc3ccc(F)cc3)C2)c2ccc3c(c2)OCO3)c(OC)c1 (stereo not shown) [Compound 19]	11 to 50	47.5	–
COc1cc(O)c(C(CC(=O)N2CCCC(CO)C2)c2ccc3c(c2)OCO3)c(OC)c1 (stereo not shown) [Compound 20]	11 to 50	44.7	–
COc1cc(O)c(C(CC(=O)NCc2ccccc2)c2ccc3c(c2)OCO3)c(OC)c1 (stereo not shown) [Compound 21]	> 50	–	–
COc1cc(O)c(C(CC(=O)NC2CCC(C)CC2)c2ccc3c(c2)OCO3)c(OC)c1 (stereo not shown) [Compound 23]	11 to 50	76.8	–
COc1cc(O)c(C(CC(=O)NCC2CCCCC2)c2ccc3c(c2)OCO3)c(OC)c1 (stereo not shown) [Compound 24]	> 50	–	–
COc1cc(O)c(C(CC(=O)NC2CCCc3ccccc32)c2ccc3c(c2)OCO3)c(OC)c1 (stereo not shown) [Compound 26]	> 50	–	–

Compound	IC50 [1] [µM]	Emax [%]	other results
COc1cc(O)c(C(CC(=O)N2CCc3ccccc3C2)c2ccc3c(c2)OCO3)c(OC)c1 (stereo not shown) [Compound 27]	11 to 50	80.7	–
COc1cc(O)c(C(CC(=O)N(C)c2cccc(C)c2)c2ccc3c(c2)OCO3)c(OC)c1 (stereo not shown) [Compound 28]	> 50	–	–
COc1cc(O)c(C(CC(=O)Nc2ccc(C)cc2)c2ccc3c(c2)OCO3)c(OC)c1 (stereo not shown) [Compound 29]	> 50	–	–
COc1cc(O)c(C(CC(=O)Nc2cccc3ccccc23)c2ccc3c(c2)OCO3)c(OC)c1 (stereo not shown) [Compound 31]	> 50	–	–
COc1cc(O)c(C(CC(=O)N2CCc3ccccc32)c2ccc3c(c2)OCO3)c(OC)c1 (stereo not shown) [Compound 32]	> 50	–	–
COc1cc(O)c(C(CC(=O)N(Cc2ccccc2)Cc2ccccc2)c2ccc3c(c2)OCO3)c(OC)c1 (stereo not shown) [Compound 33]	> 50	–	–
COc1cc(O)c(C(CC(=O)N[C@H](C)c2ccccc2)c2ccc3c(c2)OCO3)c(OC)c1 (stereo partly shown) [Compound 34]	> 50	–	–
COc1cc(O)c([C@H](CC(=O)N2CC(C)CC(C)C2)c2ccc3c(c2)OCO3)c(OC)c1 (stereo partly shown) [Compound 36]	–	91	–
COc1cc(O)c(C(CC(=O)N2CCCC2)c2ccc3c(c2)OCO3)c(OC)c1 (stereo not shown) [Compound 37]	11 to 50	27.1	–
CCN(CC)C(=O)CC(c1ccc2c(c1)OCO2)c1c(O)cc(OC)cc1OC (stereo not shown) [Compound 39]	11 to 50	64.9	–
COc1cc(O)c(C(CC(=O)N2CCN(c3ccc(F)cc3)CC2)c2ccc3c(c2)OCO3)c(OC)c1 (stereo not shown) [Compound 40]	> 50	–	–
COc1cc(O)c(C(CC(=O)N2CCC(Cc3ccccc3)CC2)c2ccc(C)cc2)c(OC)c1 (stereo not shown) [Compound 44]	> 50	–	–
COc1cc(O)c(C(CC(=O)N2CCC(c3ccccc3)CC2)c2ccc(OC)c(OC)c2)c(OC)c1 (stereo not shown) [Compound 45]	> 50	–	–
COc1ccc(C(CC(=O)Nc2ccc(F)cc2)c2ccccc2)cc1 (stereo not shown) [Compound 46]	> 50	–	–
Cc1ccc(O)c(C(CC(=O)NC2CCCCC2)c2ccccc2)c1 (stereo not shown) [Compound 47]	> 50	–	–
Cc1cccc(C(CC(=O)NCCc2ccccc2)c2ccccc2)c1O (stereo not shown) [Compound 48]	> 50	–	–
Cc1cccc(C(CC(=O)NCc2ccco2)c2ccccc2)c1O (stereo not shown) [Compound 49]	> 50	–	–
COc1ccccc1C(CC(=O)Nc1ccc(F)cc1)c1ccccc1 (stereo not shown) [Compound 50]	> 50	–	–
COc1ccc(C(CC(=O)N2CCCC(C)C2)c2ccccc2)cc1 (stereo not shown) [Compound 51]	> 50	–	–
COc1ccccc1C(CC(=O)N1CCCC(C)C1)c1ccccc1 (stereo not shown) [Compound 52]	> 50	–	–
CC1CCCN(C(=O)CC(c2ccccc2)c2ccc(O)cc2)C1 (stereo not shown) [Compound 53]	> 50	–	–
CC1CCCN(C(=O)CC(c2ccccc2)c2ccccc2O)C1 (stereo not shown) [Compound 54]	> 50	–	–

Compound	IC50 [1] [µM]	Emax [%]	other results
COc1ccccc1C(CC(=O)N1C[C@H](C)C[C@H](C)C1)c1ccccc1 (stereo partly shown) [Compound 55]	> 50	–	IC50 [2]: > 20 µM
COc1ccccc1C(CC(=O)N1CCCCC1)c1ccccc1 (stereo not shown) [Compound 56]	1 to 10	30.5	–
COc1cc(O)c(C(CC(=O)N2CCCC(C)C2)c2ccc(OC)c(OC)c2)c(OC)c1 (stereo not shown) [Compound 58]	11 to 50	98.2	–
COc1cc(O)c(C(CC(=O)N2CCCC(C)C2)c2ccccc2OC)c(OC)c1 (stereo not shown) [Compound 59]	> 50	–	IC50 [2]: > 20 µM
CCOc1ccc(C(CC(=O)N2CCCC(C)C2)c2c(O)cc(OC)cc2OC)cc1 (stereo not shown) [Compound 62]	1 to 10	100	–
COc1cc(O)c(C(CC(=O)N2CCCC(C)C2)c2ccc(C(C)C)cc2)c(OC)c1 (stereo not shown) [Compound 64]	1 to 10	99.3	IC50 [2]: 1 to 10 µM
COc1cc(O)c(C(CC(=O)N2CCCC(C)C2)c2ccc3ccccc3c2)c(OC)c1 (stereo not shown) [Compound 65]	1 to 10	92.4	IC50 [2]: 1 to 10 µM
COc1cc(O)c(C(CC(=O)N2CCCC(C)C2)c2cccc3ccccc23)c(OC)c1 (stereo not shown) [Compound 66]	11 to 50	52	IC50 [2]: 11 to 20 µM
COc1cc(O)c(C(CC(=O)N2CCCC(C)C2)c2ccc(-c3ccccc3)cc2)c(OC)c1 (stereo not shown) [Compound 67]	11 to 50	72	IC50 [2]: 11 to 20 µM
CC1CCCN(C(=O)CC(c2ccc3c(c2)OCO3)c2ccc3ccccc3c2O)C1 (stereo not shown) [Compound 68]	> 50	–	–
COc1cc(O)c(CCC(=O)N2CCCC(C)C2)c(OC)c1 (stereo not shown) [Compound 71]	> 50	–	–
COc1cc(O)c(C(CC(=O)N2CC(C)CC(C)C2)c2ccc3c(c2)OCCCO3)c(OC)c1 (stereo not shown) [Compound 80]	< 1	94	–
COc1cc(O)c(C(CC(=O)N2CC(C)CC(C)C2)c2ccc(S(=O)(=O)N(C)C)cc2)c(OC)c1 (stereo not shown) [Compound 84, 4-(3-(3,5-Dimethylpiperidin-1-yl)-1-(2-hydroxy-4,6-dimethoxyphenyl)-3-oxopropyl)-N,N-dimethylbenzenesulfonamide]	11 to 50	–	–
COc1cc(O)c(C(CC(=O)N2CC(C)CC(C)C2)c2cccc(Br)c2)c(OC)c1 (stereo not shown) [Compound 85, 3-(3-Bromophenyl)-1-(3,5-dimethylpiperidin-1-yl)-3-(2-hydroxy-4,6-dimethoxyphenyl)propan-1-one]	1 to 10	103	–
COc1cc(O)c(C(CC(=O)N2CC(C)CC(C)C2)c2cccc(C#N)c2)c(OC)c1 (stereo not shown) [Compound 87, 3-(3-(3,5-Dimethylpiperidin-1-yl)-1-(2-hydroxy-4,6-dimethoxyphenyl)-3-oxopropyl)benzonitrile]	< 1	96.6	–
COc1cc(O)c(C(CC(=O)N2CC(C)CC(C)C2)c2ccc(Cl)c(Cl)c2)c(OC)c1 (stereo not shown) [Compound 88, 3-(3,4-Dichlorophenyl)-1-(3,5-dimethylpiperidin-1-yl)-3-(2-hydroxy-4,6-dimethoxyphenyl)propan-1-one]	1 to 10	97.2	–
COc1cc(O)c(C(CC(=O)N2CC(C)CC(C)C2)c2ccc(C(C)(C)C)cc2)c(OC)c1 (stereo not shown) [Compound 89, 3-(4-tert-Butylphenyl)-1-(3,5-dimethylpiperidin-1-yl)-3-(2-hydroxy-4,6-dimethoxyphenyl)propan-1-one]	1 to 10	95.4	–
COc1cc(O)c(C(CC(=O)N2CC(C)CC(C)C2)c2ccc(CN3CCOCC3)cc2)c(OC)c1 (stereo not shown) [Compound 90]	1 to 10	99.1	–
COc1cc(O)c(C(CC(=O)N2CC(C)CC(C)C2)c2cccc(OCc3ccccc3)c2)c(OC)c1 (stereo not shown) [Compound 91]	1 to 10	92.6	–
COc1cc(O)c(C(CC(=O)N2CC(C)CC(C)C2)c2ccc(OCc3ccccc3)cc2)c(OC)c1 (stereo not shown) [Compound 92]	1 to 10	94.6	–
